According to US10316008B2, “KCNQ potassium channel agonist, and preparation method therefor and use thereof” (SHANGHAI INSTITUTE OF MATERIA MEDICA, CHINESE ACADEMY OF …, priority 2014, dated 2019):
“Also recorded” adds a separate entry of the source. Where a name gives a salt, the structure may show the parent alone. Read-outs that look alike come from different tables or passages of the source.

Legend:
[1] = test system: convulsive mice induce by MES; test: MES (maximum electroshock) induced convulsion model, oral perfusion; assay type: in vivo, KM mice; details: for efficacy against MES compared with RTG / ED50: mice; for ED50: Mus musculus, 0.5 h, oral perfusion, MES 30 mins after administration, read-out: ED50 (50% effective dose); for protective effect on convulsive mice induce by MES: orally administered
From the text: YLS-9A model physiological pharmaceutical electronic stimulator was used in the experiment to induce convulsion of mice, and specific parameters were set as follows: configuration 8, stimulating voltage: 160V, period of stimulation: 5.4 sec. Healthy KM mice (SPF level, male, body weight: 18 to 22 g) were selected for the experiment. After the ear tip of the mice was sufficiently wetted with physiological saline, the mice was electrically stimulated once with ear clip electrode, and tonic hind-limb seizure was deemed as indication of convulsion. The mice were screened one day before the experiment to weed out the dead mice and the ones without generalized tonic seizure. The qualified mice were caged randomly with access to water at liberty. Before the experiment started, the mice were fasted for 8 h.
The compounds to be tested were freshly formulated on the day of experiment. RTG hydrochloride was dissolved with ultrapure water to obtain a solution with desired concentration. K41.HCl and K43.HCl were formulated with 5% DMSO+95% of 1% Tween80, that is, a proper amount of the compound to be tested was weighted and, first, sufficiently dissolved in 5% DMSO, and then added with a desire volume of 1% Tween80 to be sufficiently suspended to form a suspension with a certain drug concentration. The mice screened one day before were randomly grouped with each group having 10 mice, marked, weighted and then administered with the compound to be tested or solvent (5% DMSO+95% (1% Tween 80)) by oral perfusion with administered volume of 0.2 ml/10 g. The dose range for each compound was 1 to 56 mg/kg for RTG, 1 to 40 mg/kg for K41.HCl, and 0.5 to 4 mg/kg for K43.HCl. 30 mins after administration, MES experiment was performed and the experimental parameters were the same as the above. The number of mice with generalized tonic-clonic convulsion in each group was recorded, the protection rate of each of the compounds to be tested on convulsive mice induce by MES was calculated and dose-response curve for each compound was plotted. The dose-response curve for each compound was obtained according to the analysis of Graphpad Prism 5 software, as shown in FIG. 3.

[2] = test system: motor coordination ability of mice; test: Rotarod experiment, motor coordination ability (acute neurotoxicity); assay type: in vivo, KM mice; details: for P.I (Protective index)=TD50/ED50: TD50 Rotarod / ED50 MES
Description: YLS-4C Rotarod system was used in the experiment, wherein the diameter of the rod was 3 cm and the rotate speed was set at 6 rpm. Healthy KM mice (SPF level) were selected, wherein male and female were equal, the body weight was 18 to 22 g. One day before experiment, the mice were place on the rotarod for training and screening. The tail tip of mice was held to make them creep on the rotarod during the training. […] The mice that jumped on the rotarod or griped the rotarod were weed out. In addition, three time periods were set with 1 min for each. […] The qualified mice were randomly caged according to the gender, and allowed to eat and drink freely.
On the day of the experiment, each compound to be tested was freshly formulated by the same method as described in MES experiment. If the compound was not sufficiently suspended, the suspension was further mixed by ultrasonication for 20 min so as to make the compound sufficiently suspended. […] 30 mins after administration, Rotarod experiment was performed and the experiment parameters were the same as the above. The number of mice that fell off from the rorarod was recorded, and the influence of each compound on motor coordination ability of mice was analyzed. The curve for dose of each compound verse motor deficit (percentage) of mice for each compound was obtained according to the analysis of Graphpad Prism 5 software and was shown in FIG. 4.

[3] = Pharmacokinetics and distribution in brain tissue in mice; assay type: in vivo, ICR mice; details: for Kp: brain/plasma, read-out: AUC0-t ratio (brain/plasma); for Kp / Cmax / Tmax / half-life / MRT inf / AUC(0-inf) / AUC0-t / clearance / Vd / AUC0-∞: mice; for MRT inf: read-out: MRT0-∞; for Vd: read-out: Vss; for bioavailability: oral, ICR mice, intragastric perfusion 5 mg/kg vs intravenous 2 mg/kg, read-out: F (oral bioavailability)
Description: K43.HCl was formulated to a 0.5 mg/ml solution for intragastric perfusion by using 5% DMSO/5% Tween80/[…] physiological saline; to a 0.2 mg/ml solution for intravenous injection by diluting the above solution for intragastric perfusion with physical saline containing 1% Tween 80.
84 healthy ICR mice (male, body weight, 18-20 g) were fasted for 8 h with access to water at liberty before the experiment. The mice were fed at the same time 2 h after administration of the compound.
After administration by intragastric perfusion, mice were sacrificed by cutting abdominal aorta at the time points set as the above with 3 mice for each time point. 0.5 mL of whole blood was collected for each animal, placed into a heparinized test tube and subjected to centrifugation at 11000 rpm for 5 min to separate plasma, which was then cryopreserved in a −20° C. refrigerator. After the animal was sacrificed, its whole brain was collected, washed with ice-cooled physiological saline to remove residual blood, absorbed to dryness, labeled and cryopreserved in a −20° C. refrigerator. After administration by intravenous injection, 0.5 mL of venous blood was collected from venous plexus behind eyeball, placed into a heparinized test tube and subjected to centrifugation at 11000 rpm for 5 min to separate plasma, which was then cryopreserved in a −20° C. refrigerator. The concentration of each compound in plasma and brain tissue was determined by LC-MS/MS.
Pharmacokinetic parameters after administration were calculated according to the obtained data of plasma concentration, using the non-compartmental model of Phoenix 1.3 software (Pharsight Co., USA).

[4] = male, ICR, mouse, po, intragastric perfusion 5 mg/kg
[5] = male, ICR, mouse, po, intragastric perfusion 5 mg/kg, brain
[6] = male, ICR, mouse, po, intragastric perfusion 5 mg/kg, plasma
[7] = male, ICR, mouse, po, intragastric perfusion 5 mg/kg, plasma, read-out: AUC0-t
[8] = male, ICR, mouse, intravenous injection 2 mg/kg, plasma
[9] = male, ICR, mouse, intravenous injection 2 mg/kg, plasma, read-out: AUC0-t
[10] = intragastric perfusion 5 mg/kg, brain

C#CCN(Cc1ccc(F)cc1)c1cc(C)c(NC(=O)OC)c(C)c1 [Compound K43, methyl 4-(N-parafluorobenzyl-N-propargyl-amino)-2,6-dimethylphenylaminoformate]
efficacy against MES compared with RTG [1]: higher than that of RTG; also recorded: superior to that of RTG | neurotoxicity compared with RTG [2]: weaker neurotoxicity than RTG | Kp [3, 4]: ≥ 7

C#CCN(Cc1ccc(F)cc1)c1ccc(NC(=O)OC)c(C)c1 [K41•HCl]
ED50 [1]: 4.8 mg/kg | efficacy against MES compared with RTG ([1]; listed as K31): higher than that of RTG | efficacy against MES compared with RTG ([1]; listed as k41): superior to that of RTG | protective effect on convulsive mice induce by MES [1]: dose dependent protective effect | neurotoxicity compared with RTG [2]: weaker neurotoxicity than RTG | P.I (Protective index)=TD50/ED50 [2]: 21.54 | Kp [3, 4]: 2.6 | Cmax [3, 5]: 1470 ng/g | Tmax [3, 5]: 15 min | half-life [3, 5]: 37.8 min | MRT inf [3, 5]: 66 min | AUC(0-inf) [3, 6]: 654 ng·h/mL | Cmax [3, 6]: 606 ng/mL | Tmax [3, 6]: 15 min | half-life [3, 6]: 38.4 min | AUC0-t [3, 7]: 646 ng·h/mL | MRT inf [3, 6]: 62.4 min | AUC(0-inf) [3, 8]: 294 ng·h/mL | clearance [3, 8]: 114 mL/min/kg | half-life [3, 8]: 29.4 min | AUC0-t [3, 9]: 281 ng·h/mL | MRT inf [3, 8]: 27 min | Vd [3, 8]: 3.04 L/kg | bioavailability ([3]; male, mouse, plasma): 91.9% | AUC0-t [3, 10]: 1680 ng·h/g | AUC0-∞ [3, 10]: 1684 ng·h/g

C#CCN(Cc1ccc(F)cc1)c1cc(C)c(NC(=O)OC)c(C)c1.Cl [K43•HCl, methyl 4-(N-parafluorobenzyl-N-propargyl-amino)-2,6-dimethylphenylaminoformate hydrochloride]
ED50 [1]: 1.6 mg/kg | protective effect on convulsive mice induce by MES [1]: dose dependent protective effect | P.I (Protective index)=TD50/ED50 [2]: 95.25 | Kp [3, 4]: 7.2 | Cmax [3, 5]: 1430 ng/g | Tmax [3, 5]: 15 min | half-life [3, 5]: 63.6 min | MRT inf [3, 5]: 77.4 min | AUC(0-inf) [3, 6]: 189 ng·h/mL | Cmax [3, 6]: 350 ng/mL | Tmax [3, 6]: 15 min | half-life [3, 6]: 37.2 min | AUC0-t [3, 7]: 184 ng·h/mL | MRT inf [3, 6]: 56.4 min | AUC(0-inf) [3, 8]: 334 ng·h/mL | clearance [3, 8]: 100 mL/min/kg | half-life [3, 8]: 24 min | AUC0-t [3, 9]: 326 ng·h/mL | MRT inf [3, 8]: 25.8 min | Vd [3, 8]: 2.61 L/kg | bioavailability ([3]; male, mouse, plasma): 22.5% | AUC0-t [3, 10]: 1329 ng·h/g | AUC0-∞ [3, 10]: 1346 ng·h/g
